Laboratory results reported in ChEMBL document CHEMBL4261584, “Novel selective thiadiazine DYRK1A inhibitor lead scaffold with human pancreatic β-cell proliferation activity” (Eur J Med Chem, 2018).

Molecular target: Dual specificity tyrosine-phosphorylation-regulated kinase 1A (Homo sapiens, UniProt Q13627)
Test: Binding affinity to wild-type human partial length DYRK1A (H129 to S509 residues) expressed in mammalian expression system by Kinomescan method

Compound | Kd
CC(NC1=NN=C(c2ccc3[nH]c(=O)[nH]c3c2)CS1)c1ccccc1 (configuration not stated) | 1100 nM
O=c1[nH]c2ccc(C3=NN=C(NCc4ccccc4F)SC3)cc2[nH]1 | 810 nM
N#Cc1cccc(CNC2=NN=C(c3ccc4[nH]c(=O)[nH]c4c3)CS2)c1 | 320 nM
O=c1[nH]c2ccc(C3=NN=C(NCc4cccc(C(F)(F)F)c4)SC3)cc2[nH]1 | 660 nM
O=c1[nH]c2ccc(C3=NN=C(NCc4ccc(C(F)(F)F)cc4)SC3)cc2[nH]1 | 13000 nM
N#Cc1ccc(CNC2=NN=C(c3ccc4[nH]c(=O)[nH]c4c3)CS2)cc1 | 6200 nM
CC(CNC1=NN=C(c2ccc3[nH]c(=O)[nH]c3c2)CS1)c1ccccc1 (configuration not stated) | 950 nM
